Experimental data reported in patent US9096492B2, “Hydrated N-fullerene amino acids, method for producing the latter, and pharmaceutical compositions on the basis thereof” (priority 2011, dated 2015).
Values joined by “and” are separate entries in the source; they are usually repeats but may differ in a detail not shown here. Equal values may be shown once. Read-outs that look alike come from different tables or passages of the source.

How the values were obtained:
[1] = system: solid Ehrlich carcinoma; test: Solid Ehrlich carcinoma in white mice, tumor size dynamics; details: Cisplatin 5 mg/kg once
[2] = system: ascites Ehrlich carcinoma cells; test: Apoptosis in ascites Ehrlich carcinoma cells of treated mice (cytofluorimetric analysis); type: in vivo
[3] = system: Ehrlich ascites carcinoma; test: Ehrlich ascites carcinoma in white mice, body weight dynamics
[4] = Solubility of the isolated product
[5] = system: HIV, HSV, and influenza virus; test: Antiviral activity of the Example 3 compound; details: against HIV
Description: The antiviral activity of the compound was studied against HIV, HSV, and influenza virus; its antitumor activity was also studied. The compound has high antitumor and antiviral activities against all of the aforementioned viruses. Preferred example embodiments of the invention are given below.

[6] = Antitumor activity of the Example 3 compound
[7] = system: A/Swine/1976/31 (H1N1) influenza virus; type: in vivo, mice; details: Tamiflu 20 mg/kg; for Infectious virus titer (log10EID50/20 mg tissue): lung tissue
[8] = ascites cells having large sizes and granularity (tumor cells)
[9] = ascites cells of moderate size and granularity

In the case of N.N.[Cl][Pt][Cl] [Cisplatin, reference compound], the “Tumor size (mm^3)” value ([1]; day 8 post transplantation) is reported as 56.5 mm^3, the “Tumor size (mm^3)” value ([1]; day 13 post transplantation) is reported as 249.2 mm^3 and the “Tumor size (mm^3)” value ([1]; day 17 post transplantation) is reported as 464.3 mm^3. For the same compound, the “Tumor size (mm^3)” value ([1]; day 21 post transplantation) was 1071.9 mm^3, the “Tumor size (mm^3)” value ([1]; day 24 post transplantation) was 1743.3 mm^3 and the “Tumor size (mm^3)” value ([1]; day 28 post transplantation) was 1269.4 mm^3. The “AnV^+ 7AAD^+ (late apoptosis)” value [2, 8] was 72.8 ± 10.9%, the “AnV^+ 7AAD^− (early apoptosis)” value [2, 8] was 0.3 ± 0.3% and the “AnV^−7AAD^+ (necrosis)” value [2, 8] was 26.6% and 26.6 ± 11.1%. For the same compound, the “AnV^−7AAD^− (living cells)” value [2, 8] was 0.4 ± 0.2%, the “Percent amount of cells with the phenotype AnV^+ 7AAD^+ (late apoptosis)” value [2, 9] was 3.5 ± 2.4% and the “Percent amount of cells with the phenotype AnV^+ 7AAD^− early apoptosis” value [2, 9] was 41.1 ± 11.3%. The “Percent amount of cells with the phenotype AnV^−7AAD^+ (necrosis)” value [2, 9] was 0.1 ± 0.2%, the “Percent amount of cells with the phenotype AnV^−7AAD^− (living cells)” value [2, 9] was 55.2 ± 11.0% and the “Animal body weight” value ([3]; day 1 post tumor transplantation) was 19.1 ± 5 g. The “Animal body weight” value ([3]; day 3 post tumor transplantation) was 19.3 ± 2.7 g, the “Animal body weight” value ([3]; day 5 post tumor transplantation) was 19.4 ± 2.5 g and the “Animal body weight” value ([3]; day 8 post tumor transplantation) was 19.8 ± 2.2 g. The “Animal body weight” value ([3]; day 10 post tumor transplantation) was 20.7 ± 2.4 g, the “Animal body weight” value ([3]; day 13 post tumor transplantation) was 21.4 ± 1.5 g and the “Animal body weight” value ([3]; day 15 post tumor transplantation) was 21.8 ± 1.6 g.

For “N-fullerene tris-ω-aminoenanthic acid) hydrate [Example 2]”, the “solubility in CH3CN:H2O (1:10)” value [4] was “soluble”, the “solubility in DMF-H2O (1:100)” value [4] was “soluble” and the solubility in water [4] was “soluble”.

For “N-fullerene tris(8-aminooctanoic acid hydrate) [Example 3]”, the antiviral activity [5] was “high” and the antitumor activity [6] was “high”.

With CCOC(=O)C1=C[C@@H](OC(CC)CC)[C@H](NC(C)=O)[C@@H](N)C1.O=P(O)(O)O [Tamiflu, ethyl(3R,4R,5S)-4-acetamido-5-amino-3-(1-ethylpropoxy)-1-cyclohexene-1-carboxylate phosphate, reference compound] the “Average lifetime (LD)” value ([7]; Summary dose, n=26) was 12.2 days, the “Increase in LD” value ([7]; Summary dose, n=26) was 3.6 days and the Index of protection ([7]; Summary dose, n=26) was 62.8. For the same compound, the “Mortality rate, %” value ([7]; Summary dose, n=26) was 26.9%, the Number of survivors ([7]; Summary dose, n=26) was 19 and the “Size of chronic post-influenza pneumonia sites (% of the total surface area of the lungs)” value ([7]; the lower of the virus doses used, day 15) was 20 ± 5%. The “Average lifetime (LD)” value ([7]; virus 1 LD50, n=13) was 13.5 days, the “Increase in LD” value ([7]; virus 1 LD50, n=13) was 2.9 days and the Index of protection ([7]; virus 1 LD50, n=13) was 71.2. The “Mortality rate, %” value ([7]; virus 1 LD50, n=13) was 15.4%, the Number of survivors ([7]; virus 1 LD50, n=13) was 11 and the “Average lifetime (LD)” value ([7]; virus 10 LD50, n=13) was 11.0 days. The “Increase in LD” value ([7]; virus 10 LD50, n=13) was 4.4 days, the Index of protection ([7]; virus 10 LD50, n=13) was 58.6 and the “Mortality rate, %” value ([7]; virus 10 LD50, n=13) was 38.5%. For the same compound, the Number of survivors ([7]; virus 10 LD50, n=13) was 8, the “Infectious virus titer (log10EID50/20 mg tissue)” value ([7]; virus dose 1 LD50) was 3.1 ± 0.1 log10EID50/20 mg tissue and the “Infectious virus titer (log10EID50/20 mg tissue)” value ([7]; virus dose 5 LD50) was 3.8 ± 0.3 log10EID50/20 mg tissue.
